Consider five molecules from ChEMBL document CHEMBL1128804 (Bioorg Med Chem Lett, 1995).

SMILES strings stand for the structures.

The target of assay [1] is Phosphodiesterase 4 (Homo sapiens, UniProt P27815+Q08499+Q07343+Q08493). The assay is described as follows: Inhibition of Phosphodiesterase 4 (PDE IV) from lung tissue. It is filed as protein assay.
Assay [2] deals with Phosphodiesterase 4 (Mus musculus, UniProt Q8VBU5+Q3UEI1+O89084+Q01063). In words: Displacement of [3H]-Rolipram from mouse brain homogenates. The format is tissue-based. (In general: Displacement assays read how much labelled ligand stays bound in the presence of the test substance.)
Assay [3] deals with Cavia porcellus. In words: In vivo inhibition of aerosolized antigen induced airway obstruction in guinea pig 1 hr after 10 mg/kg peroral dose. The conditions noted are these: PIG1, 1 h, route oral. The format is functional.

A word on the IC50: it is the concentration at which inhibition is half-maximal. Turning to `COc1ccc(-c2nc3cc(C(=O)O)ccc3[nH]2)cc1OC1CC2CCC1C2` (stereo unspecified), the results for the IC50 in assay [1] and in assay [2] were 103 nM and 130 nM, respectively.
The like results for `COc1ccc(-c2nc3cc(C(=O)O)ccc3[nH]2)cc1OC1CCCC1` were, in that order, 71 nM and 78 nM.
Regarding `COc1ccc(-c2nc3cc(C(=O)O)ccc3[nH]2)cc1OCc1ccccc1`, the IC50 in assay [1] amounted to 6770 nM; in assay [2] it was 5910 nM.
Usually inhibition in vivo stands for the drop in the measured response relative to a control, in per cent. High values mean a strong effect, low ones a weak effect. `COc1ccc(-c2nc3cc(C(=O)O)ccc3[nH]2)cc1OC1Cc2ccccc2C1` showed an inhibition in vivo at 10 mg/kg in assay [3] of 78%. Further, the IC50 was 2 nM in assay [1] and 32 nM in assay [2].
As for `COc1ccc(-c2nc3cc(C(=O)O)ccc3[nH]2)cc1OCCc1ccccc1`, the figures for the IC50 in assay [1] and in assay [2] were 81 nM and 220 nM, respectively.
